Laboratory results from US11999742B2, “Substituted pyrrolo[1,2-b]pyridazines as anthelmintics” (BOEHRINGER INGELHEIM VETMEDICA GMBH, priority 2021, dated 2024).

Assays:
[1] = system: Haemonchus contortus L1 larvae; assay: Haemonchus contortus larval development L1 to L3, 4 days, dose response; details: 96 h, read-out: EC50, development of H. contortus larvae from L1 to L3
From the text: Biological Example 2: Screening Method to Test Activity of Compounds Against Haemonchus contortus

[2] = system: L4 stage larvae of Dirofilaria immitis; assay: Motility of L4 stage Dirofilaria immitis larvae, 3 days, dose response; format: cell-based; details: 72 h, read-out: EC50, motility of L4 stage D. immitis, three days at 37° C., 5% CO2, vs DMSO control
[3] = system: Microfilaria of Dirofilaria immitis; assay: Motility of Dirofilaria immitis microfilariae in microtiter plate, 3 days, dose response; format: cell-based; details: 72 h, read-out: EC50, motility of D. immitis microfilaria, three days at 37° C., 5% CO2, vs DMSO control

## CC(C)(C)c1c(C(=O)N[C@H]2CCOc3ccccc32)cnn2c(-c3cc(Cl)cc(Cl)c3Cl)c(Cl)cc12 [Compound A522]
[1]
  EC50: < 10 nM
[2]
  EC50: < 10 nM
[3]
  EC50: < 10 nM

## Cc1cc2c(C(C)C)c(NC(=O)[C@H]3CCOc4ccccc43)cnn2c1-c1cc(Cl)cc(Cl)c1 [Compound A462]
[1]
  EC50: 100 to 1000 nM
[2]
  EC50: 10 to 100 nM
[3]
  EC50: 10 to 100 nM

## Cc1cc2c(C(C)(C)C)c(C(=O)N[C@H]3CCOc4ccccc43)cnn2c1-c1c(Cl)cc(F)cc1Cl [Compound A487]
[1]
  EC50: 10 to 100 nM
[2]
  EC50: < 10 nM
[3]
  EC50: 10 to 100 nM

## CC(C)(C)c1c(C(=O)N[C@H]2CCOc3ccccc32)cnn2c(-c3cc(Cl)cc(Cl)c3)c(Cl)cc12 [Compound A477]
[1]
  EC50: 10 to 100 nM
[2]
  EC50: < 10 nM
[3]
  EC50: < 10 nM

## Cc1cc2c(C(C)C)c(C(=O)N[C@H]3CCOc4ccccc43)cnn2c1-c1cc(Cl)cc(Cl)c1 [Compound A465, 7-(3,5-dichlorophenyl)-N-[(4S)-3,4-dihydro-2H-1-benzopyran-4-yl]-6-methyl-4-(propan-2-yl)pyrrolo[1,2-b]pyridazine-3-carboxamide]
[1]
  EC50: 10 to 100 nM
[2]
  EC50: 10 to 100 nM
[3]
  EC50: 100 to 1000 nM

## O=C(N[C@H]1CCOc2ccccc21)c1cnn2c(-c3cc(F)cc(Cl)c3Cl)c(Cl)cc2c1N1CCC1 [Compound A503]
[1]
  EC50: 10 to 100 nM
[2]
  EC50: < 10 nM
[3]
  EC50: < 10 nM

## Cc1cc2c(C(C)(C)C)c(C(=O)N[C@H]3CCOc4ccccc43)cnn2c1N1C[C@H](C)C[C@H](C)C1 [Compound A528]
[1]
  EC50: 100 to 1000 nM
[2]
  EC50: 10 to 100 nM
[3]
  EC50: 10 to 100 nM

## Cc1cc2c(C(C)(C)C)c(C(=O)N[C@H]3CCOc4ccccc43)cnn2c1N1CCCCC1 [Compound A524, 4-tert-butyl-N-[(4S)-3,4-dihydro-2H-1-benzopyran-4-yl]-6-methyl-7-(piperidin-1-yl)pyrrolo[1,2-b]pyridazine-3-carboxamide]
[1]
  EC50: 100 to 1000 nM
[2]
  EC50: 100 to 1000 nM
[3]
  EC50: 100 to 1000 nM

## CC(C)c1c(C(=O)N[C@H]2CCOc3ccccc32)cnn2c(-c3cc(Cl)cc(Cl)c3)c(F)cc12 [Compound A466]
[1]
  EC50: 100 to 1000 nM
[2]
  EC50: 10 to 100 nM
[3]
  EC50: 10 to 100 nM

## Cc1cc2c(C(C)(C)C)c(C(=O)N[C@H]3CCc4scnc43)cnn2c1-c1cc(F)cc(Cl)c1Cl [Compound A540]
[1]
  EC50: 10 to 100 nM
[2]
  EC50: 10 to 100 nM
[3]
  EC50: < 10 nM

## Cc1cc2c(C(C)(C)C)c(C(=O)N[C@H]3CCOc4ccccc43)cnn2c1N1CCC(F)(F)CC1 [Compound A527]
[1]
  EC50: 100 to 1000 nM
[2]
  EC50: 10 to 100 nM
[3]
  EC50: 100 to 1000 nM

## Cc1cc2c(N3CC(C)(C)C3)c(C(=O)N[C@H]3CCOc4ccccc43)cnn2c1-c1cc(Cl)cc(Cl)c1Cl [Compound A563]
[1]
  EC50: 1000 to 10000 nM
[2]
  EC50: 1000 to 10000 nM
[3]
  EC50: 1000 to 10000 nM

## Cc1cc2c(N3CC(F)(F)C3)c(C(=O)N[C@H]3CCOc4ccccc43)cnn2c1-c1cc(F)cc(Cl)c1Cl [Compound A504]
[1]
  EC50: 10 to 100 nM
[2]
  EC50: < 10 nM
[3]
  EC50: < 10 nM

## Cc1cc2c(C(C)(C)C)c(C(=O)NN3CCOc4ccccc43)cnn2c1-c1cc(F)cc(Cl)c1Cl [Compound A495]
[1]
  EC50: < 10 nM
[2]
  EC50: < 10 nM
[3]
  EC50: < 10 nM

## Cc1cc2c(C(C)C)c(C(=O)NN3CCOc4ccccc43)cnn2c1-c1cc(F)cc(Cl)c1Cl [Compound A498]
[1]
  EC50: 10 to 100 nM
[2]
  EC50: < 10 nM
[3]
  EC50: < 10 nM

## Cc1cc2c(C(C)(C)C)c(C(=O)N[C@H]3CCOc4ccccc43)cnn2c1-c1cc(F)cc(F)c1F [Compound A471]
[1]
  EC50: < 10 nM
[2]
  EC50: < 10 nM
[3]
  EC50: < 10 nM

## CC(C)(C)c1c(C(=O)N[C@H]2CCOc3ccccc32)cnn2c(-c3c(Cl)cc(F)cc3Cl)c(Cl)cc12 [Compound A485]
[1]
  EC50: < 10 nM
[2]
  EC50: < 10 nM
[3]
  EC50: < 10 nM

## Cc1cc2c(C(C)(C)C)c(C(=O)N[C@H]3CCc4sc(Br)nc43)cnn2c1-c1cc(F)cc(Cl)c1Cl [Compound A536a]
[1]
  EC50: 10 to 100 nM
[2]
  EC50: 10 to 100 nM
[3]
  EC50: < 10 nM

## Cc1cc2c(C(C)(C)C)c(C(=O)N[C@H]3CCc4sccc43)cnn2c1-c1cc(F)cc(Cl)c1Cl [Compound A553]
[1]
  EC50: < 10 nM
[2]
  EC50: < 10 nM
[3]
  EC50: < 10 nM

## O=C(N[C@H]1CCOc2ccccc21)c1cnn2c(-c3cc(F)cc(Cl)c3Cl)c(Cl)cc2c1N1CC(F)(F)C1 [Compound A507]
[1]
  EC50: < 10 nM
[2]
  EC50: < 10 nM
[3]
  EC50: < 10 nM

## CN(C)c1c(C(=O)N[C@H]2CCOc3ccccc32)cnn2c(-c3cc(Cl)cc(Cl)c3Cl)c(Cl)cc12 [Compound A473]
[1]
  EC50: < 10 nM
[2]
  EC50: < 10 nM
[3]
  EC50: 10 to 100 nM

## CC(C)(C)c1c(C(=O)N[C@H]2CCOc3ccccc32)cnn2c(-c3cc(F)cc(Cl)c3Cl)c(Cl)cc12 [Compound A502, 4-tert-butyl-6-chloro-7-(2,3-dichloro-5-fluorophenyl)-N-[(4S)-3,4-dihydro-2H-1-benzopyran-4-yl]pyrrolo[1,2-b]pyridazine-3-carboxamide]
[1]
  EC50: < 10 nM
[2]
  EC50: < 10 nM
[3]
  EC50: < 10 nM

## Cc1cc2c(C(C)(C)C)c(C(=O)NN3CCOc4ccccc43)cnn2c1-c1cc(Cl)cc(Cl)c1 [Compound A482]
[1]
  EC50: 100 to 1000 nM
[2]
  EC50: 10 to 100 nM
[3]
  EC50: 1000 to 10000 nM

## Cc1cc2c(C(C)(C)C)c(C(=O)N[C@H]3CCc4cccnc43)cnn2c1-c1cc(F)cc(Cl)c1Cl [Compound A544]
[1]
  EC50: 100 to 1000 nM
[2]
  EC50: 100 to 1000 nM
[3]
  EC50: 10 to 100 nM

## Cc1cc2c(C(C)(C)C)c(C(=O)N[C@H]3CCc4ccccc43)cnn2c1-c1cc(F)cc(Cl)c1Cl [Compound A558]
[1]
  EC50: < 10 nM
[2]
  EC50: < 10 nM
[3]
  EC50: < 10 nM

## Cc1cc2c(C(C)(C)C)c(C(=O)N[C@H]3CCOc4ccc(F)cc43)cnn2c1-c1cc(F)cc(Cl)c1Cl [Compound A488]
[1]
  EC50: 10 to 100 nM
[2]
  EC50: 10 to 100 nM
[3]
  EC50: < 10 nM

## CC(C)(C)c1c(C(=O)NN2CCOc3ccccc32)cnn2c(-c3cc(Cl)cc(Cl)c3)c(Cl)cc12 [Compound A516]
[1]
  EC50: 10 to 100 nM
[2]
  EC50: < 10 nM
[3]
  EC50: < 10 nM

## CC(C)c1c(C(=O)N[C@H]2CCOc3ccccc32)cnn2c(-c3cc(F)cc(Cl)c3Cl)c(Cl)cc12 [Compound A523, 6-chloro-7-(2,3-dichloro-5-fluorophenyl)-N-[(4S)-3,4-dihydro-2H-1-benzopyran-4-yl]-4-(propan-2-yl)pyrrolo[1,2-b]pyridazine-3-carboxamide]
[1]
  EC50: < 10 nM
[2]
  EC50: < 10 nM
[3]
  EC50: < 10 nM

## CC(C)c1c(C(=O)NN2CCOc3ccccc32)cnn2c(-c3cc(F)cc(Cl)c3Cl)c(Cl)cc12 [Compound A496]
[1]
  EC50: 10 to 100 nM
[2]
  EC50: 10 to 100 nM
[3]
  EC50: < 10 nM

## Cc1cc2c(C(C)(C)C)c(C(=O)NC3CCCc4ncsc43)cnn2c1-c1cc(F)cc(Cl)c1Cl (stereo not drawn) [Compound A533]
[1]
  EC50: 100 to 1000 nM
[2]
  EC50: 100 to 1000 nM
[3]
  EC50: 10 to 100 nM

## Cc1cc2c(C(C)(C)C)c(C(=O)N[C@H]3CCc4ncccc43)cnn2c1-c1cc(F)cc(Cl)c1Cl [Compound A559]
[1]
  EC50: 10 to 100 nM
[2]
  EC50: 10 to 100 nM
[3]
  EC50: 10 to 100 nM

## Cc1cc2c(C(C)(C)C)c(C(=O)N[C@H]3CCOc4ncsc43)cnn2c1-c1cc(F)cc(Cl)c1Cl [Compound A551]
[1]
  EC50: 10 to 100 nM
[2]
  EC50: 10 to 100 nM
[3]
  EC50: 10 to 100 nM

## Cc1cc2c(N3CC(F)(F)C3)c(C(=O)N[C@H]3CCOc4ccccc43)cnn2c1-c1cc(Cl)cc(Cl)c1Cl [Compound A505]
[1]
  EC50: 10 to 100 nM
[2]
  EC50: < 10 nM
[3]
  EC50: < 10 nM
